How the values were obtained:
[1] = molecular target: T1, ALK2 R206H (GST-tagged mutant ALK2) (Homo sapiens, UniProt Q04771, R206H); test: ALK binding assay (LANTHASCREEN TR-FRET competitive binding, displacement of Kinase Tracer 178); settings: ALK2 R206H, LANTHASCREEN TR-FRET competitive binding; read-out: Binding Assay (IC50)
T1 construct: purchased Carna Bioscience or ThermoFisher 09-148 or PV6232
T1 sequence (Q04771 21-509 R206H): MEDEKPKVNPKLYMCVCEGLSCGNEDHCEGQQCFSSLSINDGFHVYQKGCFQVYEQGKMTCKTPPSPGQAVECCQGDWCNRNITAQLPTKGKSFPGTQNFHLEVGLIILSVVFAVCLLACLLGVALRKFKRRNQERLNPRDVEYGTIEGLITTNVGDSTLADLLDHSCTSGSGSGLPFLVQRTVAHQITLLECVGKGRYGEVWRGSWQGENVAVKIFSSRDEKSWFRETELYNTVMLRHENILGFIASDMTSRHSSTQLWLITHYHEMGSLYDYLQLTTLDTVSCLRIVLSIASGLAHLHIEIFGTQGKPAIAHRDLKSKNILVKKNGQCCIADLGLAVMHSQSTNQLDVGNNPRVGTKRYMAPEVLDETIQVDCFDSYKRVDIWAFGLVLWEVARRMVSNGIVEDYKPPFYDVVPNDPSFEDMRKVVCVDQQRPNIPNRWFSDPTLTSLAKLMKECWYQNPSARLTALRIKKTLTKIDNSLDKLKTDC

[2] = molecular target: T2, human ALK2 R206H (Homo sapiens, UniProt Q04771, R206H); test: Cell-based ALK2-R206H cell activity assay (Smad1-Ser463/Ser465 phosphorylation by AlphaLISA in HEK293-ALK2-R206H cells); settings: read-out: Cell Line (Cell Assay IC50)
T2 construct: expressed in transfected cells; host or cells: HEK293 (ATCC CRL1573), lentivirus transduction, blasticidin selection
T2 sequence (Q04771 21-509 R206H): T1 sequence (Q04771 21-509 R206H)
How it was run: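 Stable HEK293 cells expressing C-terminally FLAG-tagged human ALK2 R206H (lentiviral, blasticidin-selected) were treated with compounds in 10-point, 3-fold dilutions from 10 μM or 1 μM top, in duplicate. Smad1 Ser463/Ser465 phosphorylation was read by AlphaLISA.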

Row | IC50 [1] | IC50 [2] | Compound
1 | < 0.01 µM | 0.1 to 0.5 µM | CC(C)NC(=O)N1CCN(c2ccnn3cc(-c4ccc(C5CCCN5)cn4)cc23)CC1 (stereo not drawn) [Compound 465]
2 | < 0.01 µM | < 0.1 µM | CCOC(=O)N1CCN(c2ccnn3cc(-c4ccc(C5COCCN5)cc4)cc23)CC1 (stereo not drawn) [Compound 468]
3 | < 0.01 µM | < 0.1 µM | CC(C)NC(=O)N1CCN(c2ccnn3cc(-c4cnn([C@@H]5CCCNC5)c4)cc23)CC1 [Compound 469]
4 | < 0.01 µM | < 0.1 µM | CC(C)NC(=O)N1CCN(c2ccnn3cc(-c4cnn([C@H]5CCCNC5)c4)cc23)CC1 [Compound 470]
5 | < 0.01 µM | < 0.1 µM | CC(C)NC(C)(C)c1ccc(-c2cc3c(N4CCN(C(=O)C5CC5)CC4)ccnn3c2)cc1 [Compound 473]
6 | < 0.01 µM | 0.1 to 0.5 µM | O=C(C1CC1)N1CCN(c2ccnn3cc(-c4ccc(C5(F)CCNCC5)cc4)cc23)CC1 [Compound 474]
7 | < 0.01 µM | < 0.1 µM | O=C(OC1COC1)N1CCN(c2ccnn3cc(-c4ccc([C@H]5CCCN5)cn4)cc23)CC1 [Compound 477]
8 | < 0.01 µM | < 0.1 µM | CCOC(=O)N1CCN(c2ccnn3cc(-c4ccc([C@]5(F)CCCNC5)cc4)cc23)CC1 [Compound 479]
9 | < 0.01 µM | < 0.1 µM | CCOC(=O)N1CCN(c2ccnn3cc(-c4ccc([C@@]5(F)CCCNC5)cc4)cc23)CC1 [Compound 480]
10 | < 0.01 µM | < 0.1 µM | CC(C)N1CC[C@H](c2ccc(-c3cc4c(N5CCN(C(=O)C6CC6)CC5)ccnn4c3)nc2)C1 [Compound 486]
11 | < 0.01 µM | < 0.1 µM | CC(C)N1CCC[C@@H]1c1ccc(-c2cc3c(N4CCN(C(=O)C5CC5)CC4)ccnn3c2)cn1 [Compound 487]
12 | < 0.01 µM | < 0.1 µM | CO[C@@]1(c2ccc(-c3cc4c(N5CCN(C(=O)C6CC6)CC5)ccnn4c3)cc2)CCCNC1 [Compound 490]
13 | < 0.01 µM | < 0.1 µM | COC1(c2ccc(-c3cc4c(N5CCN(C(=O)C6CC6)CC5)ccnn4c3)nc2)CCNCC1 [Compound 491]
14 | < 0.01 µM | < 0.1 µM | CC(C)NC(=O)N1CCN(c2ccnn3cc(-c4ccc(C5(C)CCNCC5)cc4)cc23)CC1 [Compound 492]
15 | < 0.01 µM | < 0.1 µM | CCNC(=O)N1CCN(c2ccnn3cc(-c4ccc([C@H]5CCN(C(C)C)C5)cn4)cc23)CC1 [Compound 496]
16 | < 0.01 µM | < 0.1 µM | CCOC(=O)N1CCN(c2ccnn3cc(-c4ccc(C5(OC)CCNCC5)cc4)cc23)CC1 [Compound 498]
17 | < 0.01 µM | 0.1 to 0.5 µM | CC(C)NC(=O)N1CCN(c2ccnn3cc(-c4ccc(C5(F)CCNCC5)cc4)cc23)CC1 [Compound 499]
18 | < 0.01 µM | 0.1 to 0.5 µM | Cc1cc(-c2cc3c(N4CCN(C(=O)C5CC5)CC4)ccnn3c2)ccc1[C@H]1CCN(C(C)C)C1 [Compound 504]
19 | < 0.01 µM | < 0.1 µM | CC(C)N1C[C@H](c2ccc(-c3cc4c(N5CCN(C(=O)C6CC6)CC5)ccnn4c3)cc2)C[C@@H]1C [Compound 507]
20 | < 0.01 µM | < 0.1 µM | CC(C)N1CCC[C@@]1(C)c1ccc(-c2cc3c(N4CCN(C(=O)C5CC5)CC4)ccnn3c2)cc1 [Compound 509]
21 | < 0.01 µM | < 0.1 µM | CC(C)N1CCC[C@]1(C)c1ccc(-c2cc3c(N4CCN(C(=O)C5CC5)CC4)ccnn3c2)cc1 [Compound 510]
22 | < 0.01 µM | < 0.1 µM | N#C[C@@H]1C[C@H]1C(=O)N1CCN(c2ccnn3cc(-c4ccc([C@]5(F)CCCNC5)cc4)cc23)CC1 [Compound 512]
23 | < 0.01 µM | < 0.1 µM | N#C[C@H]1C[C@@H]1C(=O)N1CCN(c2ccnn3cc(-c4ccc([C@@]5(F)CCCNC5)cc4)cc23)CC1 [Compound 513]
24 | < 0.01 µM | < 0.1 µM | CC(C)N1CCN[C@H](c2ccc(-c3cc4c(N5CCN(C(=O)C6CC6)CC5)ccnn4c3)cc2)C1 [Compound 517]
25 | < 0.01 µM | < 0.1 µM | CC(C)N1CCN[C@@H](c2ccc(-c3cc4c(N5CCN(C(=O)C6CC6)CC5)ccnn4c3)cc2)C1 [Compound 518]

The next lines start with the compound.

Row | Compound | IC50 [1] | IC50 [2]
26 | O=C(C1CC1)N1CCN(c2ccnn3cc(-c4ccc(C5COCCN5)cc4)cc23)CC1 (stereo not drawn) [Compound 464] | < 0.01 µM | < 0.1 µM
27 | CC(C)NC(=O)N1CCN(c2ccnn3cc(-c4ccc([C@@H]5CCCN5)cn4)cc23)CC1 [Compound 466] | < 0.01 µM | < 0.1 µM
28 | CC(C)NC(=O)N1CCN(c2ccnn3cc(-c4ccc([C@H]5CCCN5)cn4)cc23)CC1 [Compound 467] | < 0.01 µM | 0.1 to 0.5 µM
29 | O=C(OC1COC1)N1CCN(c2ccnn3cc(-c4ccc(C5CCCN5)cn4)cc23)CC1 (stereo not drawn) [Compound 475] | < 0.01 µM | < 0.1 µM
30 | O=C(OC1COC1)N1CCN(c2ccnn3cc(-c4ccc([C@@H]5CCCN5)cn4)cc23)CC1 [Compound 476] | < 0.01 µM | < 0.1 µM
31 | CC(C)NC(=O)N1CCN(c2ccnn3cc(-c4ccc(C5COCCN5)cc4)cc23)CC1 (stereo not drawn) [Compound 478] | < 0.01 µM | < 0.1 µM
32 | N#CC1(c2ccc(-c3cc4c(N5CCN(C(=O)C6CC6)CC5)ccnn4c3)cc2)CCNCC1 [Compound 481] | < 0.01 µM | < 0.1 µM
33 | O=C(C1CC1)N1CCN(c2ccnn3cc(-c4ccc(C56CCN(CC5)CC6)cc4)cc23)CC1 [Compound 482] | < 0.01 µM | < 0.1 µM
34 | CCOC(=O)N1CCN(c2ccnn3cc(-c4ccc(C5(C#N)CCNCC5)cc4)cc23)CC1 [Compound 483] | < 0.01 µM | < 0.1 µM
35 | CC(C)N1CCC[C@H]1c1ccc(-c2cc3c(N4CCN(C(=O)C5CC5)CC4)ccnn3c2)cn1 [Compound 484] | < 0.01 µM | < 0.1 µM
36 | CC(C)N1CC[C@@H](c2ccc(-c3cc4c(N5CCN(C(=O)C6CC6)CC5)ccnn4c3)nc2)C1 [Compound 485] | < 0.01 µM | < 0.1 µM
37 | COC1(c2ccc(-c3cc4c(N5CCN(C(=O)C6CC6)CC5)ccnn4c3)cc2)CCNCC1 [Compound 488] | < 0.01 µM | < 0.1 µM
38 | CO[C@]1(c2ccc(-c3cc4c(N5CCN(C(=O)C6CC6)CC5)ccnn4c3)cc2)CCCNC1 [Compound 489] | < 0.01 µM | < 0.1 µM
39 | CC(C)NC(C)(CO)c1ccc(-c2cc3c(N4CCN(C(=O)C5CC5)CC4)ccnn3c2)cc1 (stereo not drawn) [Compound 493] | < 0.01 µM | < 0.1 µM
40 | CCNC(=O)N1CCN(c2ccnn3cc(-c4ccc([C@@H]5CCCN5C(C)C)nc4)cc23)CC1 [Compound 494] | < 0.01 µM | < 0.1 µM
41 | CCNC(=O)N1CCN(c2ccnn3cc(-c4ccc([C@@H]5CCN(C(C)C)C5)cn4)cc23)CC1 [Compound 495] | < 0.01 µM | < 0.1 µM
42 | CCNC(=O)N1CCN(c2ccnn3cc(-c4ccc([C@H]5CCCN5C(C)C)nc4)cc23)CC1 [Compound 497] | < 0.01 µM | < 0.1 µM
43 | N#C[C@H]1C[C@H](C(=O)N2CCN(c3ccnn4cc(-c5ccc([C@@H]6CCCNC6)cn5)cc34)CC2)C1 [Compound 500] | < 0.01 µM | 0.1 to 0.5 µM
44 | O=C(C1CC1)N1CCN(c2ccnn3cc(-c4ccc(C5(O)CN6CCC5CC6)cc4)cc23)CC1 (stereo not drawn) [Compound 501] | < 0.01 µM | 0.1 to 0.5 µM
45 | CC(C)NC(=O)N1CCN(c2ccnn3cc(-c4ccc(C5(C#N)CCNCC5)cc4)cc23)CC1 [Compound 502] | < 0.01 µM | < 0.1 µM
46 | Cc1cc(-c2cc3c(N4CCN(C(=O)C5CC5)CC4)ccnn3c2)ccc1[C@@H]1CCN(C(C)C)C1 [Compound 503] | < 0.01 µM | 0.1 to 0.5 µM
47 | CC(C)N1C[C@@H](c2ccc(-c3cc4c(N5CCN(C(=O)C6CC6)CC5)ccnn4c3)cc2)C[C@H]1C [Compound 505] | < 0.01 µM | < 0.1 µM
48 | CC(C)N1C[C@@H](c2ccc(-c3cc4c(N5CCN(C(=O)C6CC6)CC5)ccnn4c3)cc2)C[C@@H]1C [Compound 508] | < 0.01 µM | 0.1 to 0.5 µM
49 | N#C[C@H]1C[C@@H]1C(=O)N1CCN(c2ccnn3cc(-c4ccc([C@]5(F)CCCNC5)cc4)cc23)CC1 [Compound 511] | < 0.01 µM | < 0.1 µM
50 | N#C[C@@H]1C[C@H]1C(=O)N1CCN(c2ccnn3cc(-c4ccc([C@@]5(F)CCCNC5)cc4)cc23)CC1 [Compound 514] | < 0.01 µM | < 0.1 µM
51 | O=C(C1CC1)N1CCN(c2ccnn3cc(-c4ccc(C5CN6CCSC6=N5)cc4)cc23)CC1 (stereo not drawn) [Compound 515] | < 0.01 µM | < 0.1 µM
52 | CC(C)N1CCNC(c2ccc(-c3cc4c(N5CCN(C(=O)C6CC6)CC5)ccnn4c3)cc2)C1 (stereo not drawn) [Compound 516] | < 0.01 µM | < 0.1 µM
53 | CC(C)NC(=O)N1CCN(c2ccnn3cc(-c4ccc(C56CCN(CC5)CC6)cc4)cc23)CC1 [Compound 519] | < 0.01 µM | < 0.1 µM
54 | CC(C)N1CCOCC1c1ccc(-c2cc3c(N4CCN(C(=O)C5CC5)CC4)ccnn3c2)cc1 (stereo not drawn) [Compound 520] | < 0.01 µM | < 0.1 µM

Reference: patent US10233186B2, “Inhibitors of activin receptor-like kinase” (BLUEPRINT MEDICINES CORPORATION, priority 2016, dated 2019)
